Tests used:
Assay in all cases: relative viability (nuclei count vs DMSO), 5 days (fraction); higher = more cells survive
Pictilisib + Tozasertib = compound: CS(=O)(=O)N1CCN(Cc2cc3nc(-c4cccc5[nH]ncc45)nc(N4CCOCC4)c3s2)CC1 [Pictilisib] + Cc1cc(Nc2cc(N3CCN(C)CC3)nc(Sc3ccc(NC(=O)C4CC4)cc3)n2)n[nH]1 [Tozasertib] (partner 0.1 µM)
Summary of the method: (§1)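 For relative viability, nuclei counts in treated wells were divided by those in vehicle wells. Lung cancer cell lines had been pin-tool dosed in 1536-well plates the day after seeding and cultured for 5 days, then fixed and stained in one step (final 0.05% Triton X-100, 1% formaldehyde, 1 ug/ml Hoechst) and imaged at 4×. Doses were one drug alone or a fixed anchor-drug dose plus five library-drug doses (not always all listed) in √10 steps, and values are duplicate-plate medians.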

Pictilisib + Alpelisib = compound: CS(=O)(=O)N1CCN(Cc2cc3nc(-c4cccc5[nH]ncc45)nc(N4CCOCC4)c3s2)CC1 [Pictilisib] + Cc1nc(NC(=O)N2CCC[C@H]2C(N)=O)sc1-c1ccnc(C(C)(C)C(F)(F)F)c1 [Alpelisib] (partner 2 µM)
Summary of the method: as §1

MK-2206 + Navitoclax = compound: NC1(c2ccc(-c3nc4ccn5c(=O)[nH]nc5c4cc3-c3ccccc3)cc2)CCC1 [MK-2206] + CC1(C)CCC(c2ccc(Cl)cc2)=C(CN2CCN(c3ccc(C(=O)NS(=O)(=O)c4ccc(N[C@H](CCN5CCOCC5)CSc5ccccc5)c(S(=O)(=O)C(F)(F)F)c4)cc3)CC2)C1 [Navitoclax] (partner 0.5 µM)
Summary of the method: as §1

MK-2206 + Foretinib = compound: NC1(c2ccc(-c3nc4ccn5c(=O)[nH]nc5c4cc3-c3ccccc3)cc2)CCC1 [MK-2206] + COc1cc2c(Oc3ccc(NC(=O)C4(C(=O)Nc5ccc(F)cc5)CC4)cc3F)ccnc2cc1OCCCN1CCOCC1 [Foretinib] (partner 0.25 µM)
Summary of the method: as §1

MK-2206 + Olaparib = compound: NC1(c2ccc(-c3nc4ccn5c(=O)[nH]nc5c4cc3-c3ccccc3)cc2)CCC1 [MK-2206] + O=C(c1cc(Cc2n[nH]c(=O)c3ccccc23)ccc1F)N1CCN(C(=O)C2CC2)CC1 [Olaparib] (partner 8 µM)
Summary of the method: as §1

| Cell Line | relative viability (Pictilisib + Tozasertib; first compound 0.02 µM) | relative viability (Pictilisib + Tozasertib; first compound 0.06325 µM) | relative viability (Pictilisib + Tozasertib; first compound 0.6325 µM) | relative viability (Pictilisib + Tozasertib; first compound 2 µM) | relative viability (Pictilisib + Alpelisib; first compound 0.02 µM) | relative viability (Pictilisib + Alpelisib; first compound 0.06325 µM) | relative viability (Pictilisib + Alpelisib; first compound 0.6325 µM) | relative viability (Pictilisib + Alpelisib; first compound 2 µM) | relative viability (MK-2206 + Navitoclax; first compound 0.01 µM) | relative viability (MK-2206 + Navitoclax; first compound 0.03162 µM) | relative viability (MK-2206 + Navitoclax; first compound 0.3162 µM) | relative viability (MK-2206 + Navitoclax; first compound 1 µM) | relative viability (MK-2206 + Foretinib; first compound 0.01 µM) | relative viability (MK-2206 + Foretinib; first compound 0.03162 µM) | relative viability (MK-2206 + Foretinib; first compound 0.3162 µM) | relative viability (MK-2206 + Foretinib; first compound 1 µM) | relative viability (MK-2206 + Olaparib; first compound 0.01 µM) | relative viability (MK-2206 + Olaparib; first compound 0.03162 µM) | relative viability (MK-2206 + Olaparib; first compound 0.3162 µM) | relative viability (MK-2206 + Olaparib; first compound 1 µM) |
| --- | --- | --- | --- | --- | --- | --- | --- | --- | --- | --- | --- | --- | --- | --- | --- | --- | --- | --- | --- | --- |
| NCI-H1666 | 0.628 | 0.599 | 0.627 | 0.483 | 0.982 | 0.989 | 0.748 | 0.428 | 0.953 | 0.927 | 0.81 | 0.655 | 1 | 0.985 | 1.02 | 0.91 | 0.702 | 0.794 | 0.802 | 0.774 |
| PC-3 [JPC-3] | 0.84 | 0.893 | 0.736 | 0.784 | 1 | 1.09 | 1.04 | 0.976 | 0.817 | 0.849 | 0.83 | 0.825 | 1.05 | 1.12 | 0.99 | 1.04 | 1.09 | 1.12 | 1.18 | 1.12 |
| NCI-H1755 | 0.548 | 0.605 | 0.475 | 0.356 | 0.924 | 0.939 | 0.892 | 0.506 | 1.02 | 0.985 | 0.829 | 0.895 | 0.929 | 0.986 | 0.816 | 0.823 | 0.875 | 0.929 | 0.901 | 0.825 |
| RERF-LC-KJ | 0.5 | 0.529 | 0.477 | 0.352 | 0.784 | 0.712 | 0.697 | 0.574 | 0.836 | 1.28 | 0.708 | 0.69 | 0.868 | 0.861 | 0.82 | 0.77 | 0.885 | 0.93 | 0.874 | 0.81 |
| NCI-H647 | 0.323 | 0.338 | 0.291 | 0.0558 | 1.09 | 1.26 | 0.894 | 0.467 | 1.02 | 1.21 | 0.969 | 1.02 | 1.1 | 1.12 | 1.06 | 1.2 | 0.568 | 0.559 | 0.662 | 0.388 |
| BEN | 0.377 | 0.425 | 0.448 | 0.409 | 0.813 | 1.08 | 1.03 | 0.704 | 0.069 | 0.0836 | 0.0745 | 0.0466 | 0.687 | 0.76 | 0.709 | 0.606 | 1.06 | 1.2 | 1.14 | 1.02 |
| 201T | 0.99 | 0.963 | 0.82 | 0.556 | 1.01 | 1.02 | 0.979 | 0.773 | 1.23 | 1.28 | 1.23 | 1.21 | 1.1 | 1.2 | 1.13 | 1.1 | 0.825 | 0.857 | 0.858 | 0.856 |
| LC-2-ad | 0.482 | 0.516 | 0.345 | 0.264 | 0.918 | 0.828 | 0.634 | 0.484 | 0.423 | 0.506 | 0.288 | 0.3 | 0.864 | 0.952 | 0.846 | 0.889 | 0.662 | 0.73 | 0.767 | 0.795 |
| LCLC-97TM1 | 0.251 | 0.211 | 0.0992 | 0.0885 | 0.268 | 0.353 | 0.265 | 0.176 | 0.522 | 0.499 | 0.404 | 0.361 | 0.881 | 0.929 | 0.887 | 0.804 | 0.381 | 0.351 | 0.273 | 0.234 |
| NCI-H1915 | 0.433 | 0.432 | 0.405 | 0.308 | 1.08 | 1.11 | 0.998 | 1.07 | 0.813 | 0.83 | 0.835 | 0.784 | 1.08 | 1.16 | 1.07 | 1.05 | 0.238 | 0.246 | 0.257 | 0.254 |
| NCI-H3122 | 0.323 | 0.311 | 0.321 | 0.142 | 0.749 | 0.723 | 0.658 | 0.469 | 1.02 | 1.03 | 1.01 | 0.958 | 0.998 | 0.896 | 1.05 | 0.944 | 0.681 | 0.687 | 0.656 | 0.63 |
| NCI-H1993 | 0.483 | 0.567 | 0.5 | 0.529 | 0.656 | 0.712 | 0.663 | 0.625 | 0.901 | 0.801 | 0.678 | 0.649 | 0.761 | 0.773 | 0.665 | 0.57 | 0.941 | 1.05 | 0.99 | 0.652 |
| NCI-H2405 | 0.764 | 0.725 | 0.663 | 0.348 | 0.957 | 0.785 | 0.732 | 0.424 | 0.838 | 1.06 | 0.83 | 0.779 | 1.03 | 1.08 | 0.991 | 0.98 | 0.837 | 0.899 | 0.875 | 0.825 |

Source: the supplement of paper PMC10307832
